Measurements reported in patent US12589107B2, “Composition containing nicotinamide mononucleotide and mogroside, and application thereof” (Beijing Hebabiz Biotechnology Co., Inc., priority 2019, dated 2026).

How the values were obtained:
3T3-L1 preadipocytes = experiment: Induced differentiation of 3T3-L1 preadipocytes, Oil Red O staining of lipid droplets; assay type: cell-based; conditions: 10 mM each, 8 days of induced differentiation, P<0.01
Protocol: 2 days after the 3T3-L1 preadipocytes grew to complete confluence, the induction of differentiation began. That is, the DMEM complete medium was discarded, and replaced with DMEM complete medium containing 5 ug/ml insulin, 0.5 mM IBMX, 1 uM dexamethasone, and after 2 days, it was replaced with DMEM complete culture medium containing 5 ug/ml insulin and cultured for 2 days. Then DMEM complete culture medium was used to continue culturing for 2 days. From the first day of differentiation, the experimental group was given a culture medium containing 10 mM GX999 or 10 mM GX008A to intervene in the whole process of cell differentiation, and the control group was added with conventional inducers.
After 8 days of induced differentiation, the cells were fixed with 4% paraformaldehyde for 30 minutes, washed 3 times with balanced salt solution (PBS), incubated with oil red O staining solution for 60 minutes, the pipetted liquid was rinsed 3 times with PBS, and observed for the formation of lipid droplets under an inverted microscope and a video was taken. Isopropanol (200 ul per well) was added, and the absorbance at A490 nm was measured with a microplate reader after 5 minutes.
Based on the results of the above-mentioned combination application experiment, the drug concentration and combination concentration were selected. […]

[1] = tested on: alloxan-damaged RINm5f cells; experiment: MTT cell viability assay, protection against alloxan-induced islet β-cell damage (with Calcusyn combination index); assay type: cell-based, rat; conditions: for combination index CI value with alloxan: agent 0.5, 1, 5, 10 mM with alloxan 15 mM, Calcusyn, >1.0 = antagonistic (cytoprotective); for cell survival rate of alloxan-damaged pancreatic β-cells, single agent: alloxan 15 mM, agent 0.5, 1, 5, 10 mM, pretreated 1 h, 24 h, significant vs AXN group at 5 mM (P<0.05) and 10 mM (P<0.01)
Protocol: RINm5F cells were cultured to the logarithmic growth phase, inoculated in 96-well culture plates at a cell density of 5×10^4/ml, cultured for 24 hours, and then drugs were added. The experiment was divided into a negative control group, an alloxan damage group (AXN group) and a protection group. Both the AXN group and the protection group were added with alloxan at a final concentration of 15 mM, and the protection group was added with different concentrations of GX999 and GX008A, pretreated for 1h. The experiment set up 4 duplicate wells and the experiment was repeated three times.
RINm5F cells were cultured to the logarithmic growth phase, inoculated in 96-well culture plates at a cell density of 5×10^4/ml, cultured for 24 hours, and then drugs were added. The experiment was divided into a negative control group, an alloxan damage group (AXN group) and a protection group. Both the AXN group and the protection group were added with alloxan at a final concentration of 15 mM, and the protection group was added with different concentrations of GX999 and GX008A, pretreated for 1h. The experiment set up 4 duplicate wells and they were placed in a carbon dioxide incubator for regular culture for 24 hours. MTT 20 ul (5 mg/mL) was added to each well and incubated for 4 hours. Then the culture medium was discarded, 150 ul DMSO was added to each well and shaken for 10 minutes, and the OD value of the optical density was detected at 490 nm with a microplate reader.
According to the inhibition rates of different concentrations of drugs alone and in combination, the Calcusyn software was used to analyze and process data such as the inhibition rates of GX999 and GX008A alone at different concentrations and the inhibition rates in combination at corresponding concentrations to obtain the combination index (CI) value. According to the definition of combination index, the synergistic effect of drugs was judged, and the synergistic effect is indicated by less than 1.0, and the antagonistic effect is indicated by greater than 1.0.
The experiment set up a negative control group and a damage group with different concentrations of alloxan (concentrations of 4 mM, 7 mM, 10 mM, 15 mM, 20 mM), after 24 hours of exposure, then 4 duplicate wells were set up, and the MTT method was used to detect the cell survival rate. […] Compared with the blank control group, the P value was less than 0.01, and the difference was statistically significant.

3T3L1 preadipocytes = experiment: MTT cell viability assay, proliferation of 3T3L1 preadipocytes (with Calcusyn combination index); assay type: cell-based; conditions: 48 hours; for survival rate of 3T3L1 cells / cell proliferation, single agent: GX999 10-60 mM, GX008A 5-200 mM, P<0.01 vs blank control
Protocol: 3T3L1 cells were placed in DMEM high-glucose medium containing 10% calf serum and cultured at 37° C. and 5% CO2. When the cells reached 90% confluence, they were digested with 0.25% trypsin, passaged, and inoculated in a 96-well cell culture plate.
The logarithmic growth phase cells were taken and inoculated in a 96-well plate at a density of 5×10^3 cells/mL, with 4 replicate wells in each group. After the cells grew to about 40%-50% confluence, the fresh drug-containing medium was replaced with and they were divided into a GX999 alone group, a GX008A group, and a GX999+GX008A combination group. After culturing for 48h, MTT 20 ul (5 mg/mL) was added to each well and incubated for 4h. Then the culture medium was discarded, 150 ul DMSO was added to each well and shaken for 10 minutes, and the OD value of the optical density was detected at 490 nm with a microplate reader, and the cell survival rate was calculated according to the formula. Analysis of drug synergy:
Combination method: 10 mM GX999 in combination with GX008A (0, 5, 10, 30, 50 mM) group. According to the inhibition rates of different concentrations of drugs alone and in combination, the Calcusyn software was used to analyze and process data such as the inhibition rates of GX999 and GX008A alone at different concentrations and the inhibition rates in combination at corresponding concentrations to obtain the combination index (CI) value. According to the definition of combination index, the synergistic effect of drugs was judged, and the synergistic effect is indicated by less than 1.0, and the antagonistic effect is indicated by greater than 1.0.

Compound | lipid droplet content in cells compared with the differentiation group (3T3-L1 preadipocytes) | combination index CI value with alloxan [1] | cell survival rate of alloxan-damaged pancreatic β-cells, single agent [1] | survival rate of 3T3L1 cells / cell proliferation, single agent (3T3L1 preadipocytes) | IC50 (3T3L1 preadipocytes; 3T3L1 cells, MTT, read-out: IC50 (3T3L1 cell survival rate)) [mM] | cell survival rate / cell proliferation (alloxan cell damage model) ([1]; alloxan 4, 7, 10, 15, 20 mM, 24 hours, RINm5f cells, MTT)
C[C@H](CC[C@@H](O[C@@H]1O[C@H](CO[C@@H]2O[C@H](CO)[C@@H](O)[C@H](O)[C@H]2O)[C@@H](O)[C@H](O)[C@H]1O[C@@H]1O[C@H](CO)[C@@H](O)[C@H](O)[C@H]1O)C(C)(C)O)[C@H]1CC[C@@]2(C)[C@@H]3CC=C4[C@@H](CC[C@H](O[C@@H]5O[C@H](CO[C@@H]6O[C@H](CO)[C@@H](O)[C@H](O)[C@H]6O)[C@@H](O)[C@H](O)[C@H]5O)C4(C)C)[C@]3(C)[C@H](O)C[C@]12C [GX008A, Mogroside V] | significantly reduced | greater than 1.0 | the cell survival rate could be significantly improved | inhibited cell proliferation in a concentration-dependent manner |  | 
NC(=O)c1ccc[n+]([C@@H]2O[C@H](COP(=O)([O-])O)[C@@H](O)[C@H]2O)c1 [GX999, Nicotinamide mononucleotide] | significantly reduced | greater than 1.0 | the cell survival rate could be significantly improved | inhibited cell proliferation in a concentration-dependent manner | 51.7 ± 1.5 | 
O=C1NC(=O)C(=O)C(=O)N1 [alloxan, reference compound] |  |  |  |  |  | inhibited cell proliferation in a concentration-dependent manner
